{"source": "paper PMC9388626", "about": "“STUB1 is an intracellular checkpoint for interferon gamma sensing” (Scientific Reports, 2022)", "key": {"DU145 cells": {"tested_on": "DU145 cells", "experiment": "Lumit immunoassay, phospho-Tyr701-STAT1", "assay_type": "cell-based, human", "settings": "DU145, PTPN2 or STUB1 loss, 30 min", "protocol": "(§1) Parental and CRISPR-edited tumour cells were seeded in a cell density of 12,500 (DU145), 15,000 (PC-3), or 30,000 (MCF7) per well in 384-well plate (Greiner Bio-One, #781080) filled with 25 µl culture media + 10% FBS. After 20–24 h incubation, the cells were treated with recombinant human IFNγ (R&D Systems, #285-IF-100) by adding an equal volume of the complete culture media containing the cytokine. After 30 min of stimulation, the culture media were removed by gentle spin using Blue Washer (BlueCatBio). Lumit immunoassay (Promega, #W1202) was performed according to manufacturer’s instrutions. The assay buffer was supplemented with Halt protease and phosphatase inhibitor cocktail (Thermo Scientific, #78443). The cells were lyzed with 12 µl per well of lysis solution (0.02% digitonin) for 20 min. The cell lystates were probed for 90 min with 12 µl of mixture of primary antibodies, which include anti-STAT1 rabbit antibody (Cell Signaling Technology, #14994), anti-pSTAT1 (Tyr701) mouse antibody (Abcam, ab29045), Lumit anti-mouse antibody-LgBiT (Promega) and Lumit anti-rabbit antibody-SmBiT (Promega). Final concentration of each antibody is 0.15 µg ml^−1. After 2 min incubation in the presence of the Lumit detection reagent (6 µl), the luminescence signals were detected by Infinite M1000 PRO (Tecan)."}, "PC-3 cells": {"tested_on": "PC-3 cells", "experiment": "Lumit immunoassay, phospho-Tyr701-STAT1", "assay_type": "cell-based, human", "settings": "PC-3, PTPN2 or STUB1 loss, 30 min", "protocol": "as §1"}}}
{"substance": "IFNγ", "values": [{"measurement": "Phosphorylation of Tyr701-STAT1", "setting": "DU145 cells", "value": "increased the cells’ response to IFNγ in a dose-dependent manner"}, {"measurement": "Phosphorylation of Tyr701-STAT1", "setting": "PC-3 cells", "value": "increased the cells’ response to IFNγ in a dose-dependent manner"}]}
